Data taken from publication PMC12434670 (Journal of Medicinal Chemistry, 2025).
Read-outs that look alike come from different tables or passages of the source.

System: Virg09 virus clones with HA mutations
Format: cell-based, influenza A virus
[1] = read-out: Antiviral EC50 by MTS assay, mutant A81/82_1V
[2] = read-out: Antiviral EC50 by MTS assay, mutant D90_2G
[3] = read-out: Antiviral EC50 by MTS assay, mutant F118_1L
[4] = read-out: Antiviral EC50 by MTS assay, mutant S54_2P
[5] = read-out: Antiviral EC50 by MTS assay, mutant T301_1I
[6] = read-out: EC50 against all virus clones selected under VF-57a or RL-007

SMILES | Activity against all viruses tested (in words) | EC50 [1] | EC50 [2] | EC50 [3] | EC50 [4] | EC50 [5] | EC50 [6]
O=C1c2c(O)c(=O)ccn2N([C@@H]2c3ccccc3SCc3c2ccc(F)c3F)[C@@H]2COCCN12 [BXA, baloxavir acid] | equally active | 0.003 ± 0.0007 µM | 0.0017 ± 0.0002 µM | 0.0025 ± 0.0005 µM | 0.0017 ± 0.0008 µM | 0.0019 ± 0.0001 µM | 
Cc1cc(CNC(=O)c2cc(Cl)cc(C(F)(F)F)c2)c(C)s1 [Compound 23, 3-Chloro-N-[(2,5-dimethylthiophen-3-yl)methyl]-5-(trifluoromethyl)benzamide] |  | > 40 µM | > 40 µM | > 40 µM | > 40 µM | > 40 µM | > 40 µM
CC(C)c1ccccc1NCCN1CCCCC1 [RL-007, reference compound] |  | > 40 µM | > 40 µM | > 40 µM | > 40 µM | > 40 µM | > 40 µM
